These compounds were tested against SARS-CoV-2 Main Protease (SARS-CoV-2) (UniProt P0DTD1).

Point of comparison: `COc1ccccc1OCCNC(=O)c1cc(=O)[nH]c2cccc(C)c12`, IC50 10.6 µM. Against it:
- CN1CCCN(c2ccc(N(C(=O)c3cocn3)C(C(=O)NCCc3cccc(F)c3)c3cccnc3)cc2)C1=O (stereo not drawn) — 5.8-fold higher, 61 µM
- Cc1ccncc1NC(=O)Cc1cc(Cl)cc(-c2ccc(C3(C)CCO3)cc2)c1 (stereo not drawn) — within 1.5-fold, 8.95 µM
- O=C(c1ccc(N2CCCC2)nc1)N1CCCC(c2ccn[nH]2)C1 (stereo not drawn) — higher, > 99.5 µM
- COCCn1nc(C(=O)N(c2ccc(C(C)(C)C)cc2)C(C(=O)NCCc2cccc(F)c2)c2cccnc2)ccc1=O (stereo not drawn) — higher, > 99.5 µM
- O=C(CCc1cccc(Cl)c1)Nc1cncc2ccccc12 — 2-fold higher, 20.8 µM
- Cn1cc(NC(=O)Cc2cccc(Cl)c2)c2ccccc2c1=O — higher, > 99.5 µM
- CN1C(=O)CCc2cc(N(C(=O)c3cnc[nH]3)C(C(=O)NCCc3cccc(F)c3)c3cccnc3)ccc21 (stereo not drawn) — higher, > 99 µM
- Cn1cccc(C(C(=O)NCCc2cccc(F)c2)N(C(=O)c2cocn2)c2ccc(C(C)(C)C)cc2)c1=O (stereo not drawn) — higher, > 99.5 µM
- O=C(Cc1cc(Cl)cc(N2CCN(Cc3cccc(F)c3)CC2)c1)Nc1cncc2ccccc12 — 3.2-fold lower, 3.28 µM
- CCOc1c(Cl)cccc1CC(=O)Nc1cncc2ccccc12 — 1.5-fold lower, 6.96 µM
- O=C(Cc1cc(Cl)cc(Nc2c(F)cc(Br)cc2F)c1)Nc1cncc2ccccc12 — 6.9-fold lower, 1.54 µM
- N#CCCN1CCN(C(=O)CC2(C(=O)Nc3cncc4ccccc34)CCOc3ccc(Cl)cc32)CC1 (stereo not drawn) — 2-fold higher, 21.3 µM
- O=C(Cc1cc(Cl)cc(Nc2cccc(Cl)c2Br)c1)Nc1cncc2ccccc12 — 5.5-fold lower, 1.94 µM
- Cc1ccncc1NC(=O)Cc1cc(C#N)cc(OC2CC(=O)N2)c1 (stereo not drawn) — within 1.5-fold, 11.6 µM
- COc1ccc(N(C(=O)c2ccco2)C(C(=O)NCCc2cccc(F)c2)c2cccnc2)cc1 (stereo not drawn) — 2.9-fold higher, 30.5 µM
- O=C(Cc1cc(Cl)cc(N2CCN(CCc3ccccc3)CC2)c1)Nc1cncc2ccccc12 — 2.1-fold lower, 5.02 µM
- O=C(Nc1n[nH]c2ccncc12)C1CCOc2ccc(Cl)cc21 (stereo not drawn) — 6.6-fold higher, 70.3 µM
- C[C@H](Nc1cc(Cl)cc(CC(=O)Nc2cncc3ccccc23)c1)c1ccc(Br)cc1 (stereo in doubt) — 2.8-fold lower, 3.77 µM
- O=C(Cc1cccc(Cl)c1)Nc1cccc2[nH]ncc12 — higher, > 99.5 µM
- N#CC1(CS(=O)(=O)N2Cc3ccc(Cl)cc3C3(CCN(c4cncc5cc(F)cc(Cl)c45)C3=O)C2)CC1 (stereo not drawn) — 2.2-fold higher, 23.8 µM
- Clc1cccc2c1OCCC2Nc1ncccn1 (stereo not drawn) — higher, > 99.5 µM
- CC(=O)NCCc1c[nH]c2ccc(O)cc12 — higher, > 99.5 µM
- CC(C)(C)c1ccc(N(C(=O)C2CCCO2)C(C(=O)NCCc2cccc(F)c2)c2cccnc2)cc1 (stereo not drawn) — 1.9-fold lower, 5.56 µM
- O=C(Cc1cc(Cl)cc(Nc2ccc(-c3ccccn3)cc2)c1)Nc1cncc2ccccc12 — 6.3-fold lower, 1.67 µM
- CC(C)(C)c1ccc(N(C(=O)c2ccco2)C(C(=O)NCCc2cccc(F)c2)c2snc3ccccc23)cc1 (stereo not drawn) — 2-fold lower, 5.33 µM
- C=CC(=O)NCC(=O)N(Cc1ccccc1O)C[C@@H]1CCCO1 (stereo in doubt) — higher, > 99.5 µM
- CC1(CS(=O)(=O)N2Cc3ccc(Cl)cc3C3(CCN(c4cncc5ccccc45)C3=O)C2)CS(=O)(=O)C1 (stereo not drawn) — 74-fold lower, 0.144 µM
- C=CC(=O)N[C@H](Cc1ccccc1)C(=O)NCCN(C)C (stereo in doubt) — higher, > 99.5 µM
- COc1ccccc1N1CCN(c2cc(Cl)cc(CC(=O)Nc3cncc4ccccc34)c2)CC1 — 3.6-fold lower, 2.98 µM
- N#CCC(=O)N1CCc2ccc(Cl)cc2C1C(=O)Nc1cncc2ccccc12 (stereo not drawn) — 1.6-fold lower, 6.51 µM
- O=C(c1cc(=O)[nH]c2ccccc12)N1CCN(Cc2cccc(C(F)(F)F)c2)CC1 — 3.2-fold higher, 34.2 µM
- N#CC1(CS(=O)(=O)N2Cc3ccc(Cl)cc3[C@@H](C(=O)Nc3cncc4ccccc34)C2)CCS(=O)(=O)CC1 (stereo in doubt) — within 1.5-fold, 15.3 µM
- O=C(NCCc1cccc(F)c1)C(c1cccnc1)N(C(=O)c1cnc[nH]1)c1ccc(Cn2cccn2)cc1 (stereo not drawn) — 3.3-fold higher, 35.5 µM
- Cc1c(C(=O)N2CCC(C3CCNC3)CC2)cccc1-c1ccccn1 (stereo not drawn) — higher, > 99.5 µM
- CCc1cc(Br)ccc1Nc1cc(Cl)cc(CC(=O)Nc2cncc3ccccc23)c1 — 3.4-fold lower, 3.15 µM
- CN(c1cc(Cl)cc(CC(=O)Nc2cncc3ccccc23)c1)C1CCN(C(=O)OC(C)(C)C)CC1 — 4.2-fold lower, 2.5 µM
- O=C(Cc1cc(Cl)cc(NCc2cc(Cl)cc(Cl)c2)c1)Nc1cncc2ccccc12 — 6.2-fold lower, 1.72 µM
- COc1cc(Cl)nc(Nc2cc(Cl)cc(CC(=O)Nc3cncc4ccccc34)c2)n1 — 21-fold lower, 0.504 µM
- CC(C)(C)c1ccc(N(C(=O)c2cn[nH]c2)C(C(=O)NCCc2cccc(F)c2)c2cccnc2)cc1 (stereo not drawn) — 1.8-fold lower, 5.83 µM
- O=C(Cc1cc(Cl)cc(NCc2cc(F)ccc2Br)c1)Nc1cncc2ccccc12 — 5.6-fold lower, 1.88 µM
- O=C1Cc2ccccc2N(C(=O)Cc2cccc(Cl)c2)C1 — higher, > 99.5 µM
- CCOC(=O)c1ncoc1CNC(=O)C(c1cccnc1)N(C(=O)c1cocn1)c1ccc(C(C)(C)C)cc1 (stereo not drawn) — 1.8-fold lower, 5.88 µM
- COC(=O)c1c(C)n(S(C)(=O)=O)c2ccc(N(C(=O)c3ccco3)S(C)(=O)=O)cc12 — 11-fold lower, 0.935 µM
- O=C(Cc1cc(Cl)cc(Nc2nnc(C(F)(F)F)s2)c1)Nc1cncc2ccccc12 — 4.3-fold lower, 2.44 µM
- O=C(NCCc1cccc(F)c1)C(c1cccnc1)N(C(=O)c1cnc[nH]1)C1CCCCCC1 (stereo not drawn) — higher, > 99 µM
- COC(C)(C)/C=C/C[C@@H](C)[C@H]1CC[C@@]2(C)[C@@H]3[C@@H](O[C@@H]4O[C@H](CO)[C@@H](O)[C@H](O)[C@H]4O)C=C4[C@@H](CC[C@H](O)C4(C)C)[C@]3(C=O)CC[C@]12C (stereo in doubt) — higher, > 99.5 µM
- O=C(Cc1cc(Cl)cc(Nc2cc(Cl)c(F)cc2F)c1)Nc1cncc2ccccc12 — 6.1-fold lower, 1.74 µM

— the COVID Moonshot data (paper PMC7615835)
